# “Also recorded” adds a separate entry of the source.
# Experiments:
# [1] = tested on: neonatal murine utricular maculae; experiment: BIO, siHes1 and GSI in neomycin-damaged utricle cultures; format: cell-based, CD1 mice; settings: NEO-ablated utricles; BIO 2.5 μM, 20 nM Hes1 siRNA, GSI 5 μM
# Method: To assess whether BIO can enhance the therapeutic efficacy of Hes1 siRNA in regenerating HCs following a toxic insult, neonatal murine utricular tissues were exposed to neomycin (NEO) and then either left untreated or were treated with one or both of the therapeutic agents. After a total of 8 days in vitro, tissues were fixed and labeled with the HC marker, Myo7a. ###, p<0.001 difference in Myo7a-postive cells relative to untreated controls. *, **, and ***, p<0.05, 0.01, and 0.001, respectively, with respect to significant differences in the number of Myo7a-postive cells between treatment groups.
# Organotypic cultures from murine utricular maculae (balance organ sensory epithelia) were cultured and then harvested on postnatal day 3 (P3) from CD1 mice. These explants were then cultured in appropriate media for twenty-four hours. […] All cultures were then maintained in media without either of the test agents for a final 24 h, after which tissues were fixed in 4% paraformaldehyde solution and subjected to immunolabeling with an antibody against the hair cell marker, myosin VIIa (Myo7a), and an appropriate secondary antibody for subsequent immunofluorescence-mediated quantification of HCs along the length of the cochlear spiral (FIGS. 14-17).
# [2] = tested on: Madin-Darby Canine Kidney (MDCK) cells; format: cell-based
# Method: FIG. 19 depicts representative images of GSK3I-mediated proliferation in serum-starved MDCK cells. Cells were initially cultured in the presence of 10% fetal bovine serum (FBS) and then switched to serum-free media for 24 hours prior to the addition of 0.2% serum-containing media which included GSK3Is at the indicated concentrations in the presence of 10 μM EdU. Cells were cultured an additional 48 h prior to fixation and visualization of EdU-positive nuclei (green) via conjugation of AlexaFluor488 azide in a copper-catalyzed cycloaddition (“Click” reaction, Click-iT Edu, Life Technologies). Total nuclei were stained with DAPI (blue). NC, normal control or untreated cells cultured in the presence of 10% FBS throughout the experimental time course.
# EdU-positive nuclei from imaged fields of MDCK cells cultured as described in FIG. 13 were quantified using ImageJ software (NIH) and graphed as the averaged percentile of the number of EdU-positive cells relative to the total number of DAPI-stained nuclei in each field. A minimum of four fields of cells for each experimental condition were included in this analysis. (* and ***, p<0.05 and 0.001, respectively, for statistically significant increases in EdU-positive nuclei relative to untreated, serum-starved controls).
# Tideglusib was procured from Cayman Chemical Company and performed a dose curve analysis under serum starvation conditions with Madin-Darby Canine Kidney (MDCK) cells in parallel with a series of commercially-available GSK3 inhibitors to ascertain its relative proliferative potential under mitotically-suppressed conditions in this well-established mammalian epithelial cell line. In these experiments, MDCK cells were cultured under serum starvation conditions for 24 hours prior to culturing cells for 48 hours in the presence of GSK3 inhibitors and 10 μM EdU (5-ethynyl-2′-deoxyuridine), a nucleoside analog that permanently marks cells that have undergone DNA replication.
# [3] = tested on: organotypic cultures of murine OCs; experiment: Hair cell counts in neomycin-damaged OC cultures treated with TIDE and/or siHES1 lipofection complexes; format: cell-based; settings: for Hair Cell Counts ± SEM, Mid-apical turn / Hair Cell Counts ± SEM, Middle Turn: neomycin 0.7 mM 24 h, 10.0 μM TIDE, siHES1 20 nM lipofection complexes (FIG. 22)
# Method: (§1) FIG. 22 depicts hair cells (Myo7a+ cells) quantified from the mid-apical and middle regions of organotypic cultures of murine OCs following a 24 h exposure to neomycin (0.7 mM) and subsequent recovery in the presence or absence of the GSK3 inhibitor Tideglusib (TIDE) and/or siHES1 (20 nM) lipofection complexes (JetSI, Polyplus).
# as §1, with “23” for “22”
# as §1, with “25” for “22”, “mid-apical, middle,” for “mid-apical”, “mid-basal” for “middle”, “Polyplus). One set of NEO-ablated OCs were treated with TIDE then siHes1 in the presence of 2 ng/mL FGF-2 as a media supplement with the aim of potentially enhancing the effects of Tideglusib.” for “Polyplus).”
# The protocol described above for BIO is used, substituting the addition of BIO for 10.0 μM Tideglusib (TIDE). A third treatment group is added, where Tideglusib is included in the culture medium after siHes1, parallel to the other protocols: on P4 or P5 (depending on whether there was an ototoxic insult to simulate hair cell loss) the control media is added with or without the inclusion of 10.0 μM TIDE; on P7 siHes1 is added in the presence of absence of TIDE; and on P9 10.0 μM Tideglusib is included in the media for a subset of cultures. On P11, all media is replaced with fresh media without any therapeutics. On P12, the tissues are fixed for immunolabeling. An example of comparative analyses from this treatment paradigm, following an exposure to the ototoxic aminoglycoside, NEO, is depicted in FIG. 22.
# This experimental paradigm was again repeated adding additional treatment groups where FGF-2 was optionally included in the culture medium at 2 ng/mL at P5, P7, and P9 for a subset of cultures.
# [4] = tested on: postnatal (P3) murine (CD1) OC explants; experiment: siHes1 NPs with Tideglusib in neomycin-ablated OC explants; format: cell-based
# Method: Postnatal (P3) murine (CD1) OC explants were exposed to the ototoxic aminoglycoside, neomycin, for 24 h and then treated with 60 nM siHes1 NP alone; the GSK3 inhibitor, Tideglusib (TIDE), alone (2 μM); or a combination of 60 nM siHes1 NP with escalating doses of Tideglusib (0.5, 2, or 10 μM) for 6d prior to fixation and immunolabeling against the HC-specific marker, Myo7a. Middle turn as fixed reference among images shown.
# NEO-ablated OCs were treated with a suboptimal (60 nM) dose of siHes1 NPs either alone or in combination with escalating doses of TIDE. […] The sustained release profile of siHes1 NPs mimics staged application of the two therapeutics.
# Applicants hypothesized that the delayed, yet sustained, release of siHes1 from biocompatible PLGA NPs would recapitulate the therapeutic attributes of staged application of a GSK3 inhibitor and siRNA against Hes1 when the two drugs were co-administered. To test this hypothesis, a sub-maximal efficacious dose (60 nM) of siHes1 NPs with escalating doses (0.5, 2, and 10 μM) of the GSK3I, tideglusib, in order to have sufficient experimental margin were used to assess a regenerative dose-response profile in organotypic cultures of neomycin (NEO)—exposed organs of Corti (OCs). Using this paradigm, NEO-ablated OCs were subsequently cultured with siHes1 NPs alone or in combination with Tideglusib over the course of six days prior to fixation and immunohistological analyses.
# [5] = tested on: sensory epithelial region of postnatal day 3 OCs; experiment: EdU-labeling of mitotically-active cells in postnatal organ of Corti; format: cell-based; settings: 0.5 or 2.0 μM, 72 hours, vs vehicle
# Method: FIG. 21 depicts EdU-labeling of mitotically-active cells in the postnatal organ of Corti in response to Tideglusib treatment. Postnatal day 3 OCs were harvested and cultured in vitro for 24 hours prior to the addition of culture media containing 10 μM EdU in the presence of either vehicle alone (DMSO) or tideglusib (TIDE) at a final concentration of 0.5 or 2.0 μM. Organotypic cultures were cultured continuously in the presence of these agents for 72 hours prior to fixation and visualization of EdU-positive nuclei as described above. Images of the middle turn of the OC from each group are shown. Brackets denote the sensory epithelial region in each image.
# A targeted pilot experiment was conducted in which postnatal OCs were cultured continuously for 72 hours in the presence of EdU and either tideglusib or vehicle alone to assess whether the GSK3 inhibitor was capable of inducing a mitotic response in the sensory epithelial region of the OC. […] Follow-up analyses will indicate whether this tideglusib-induced proliferative response in the OC involves supporting cells, hair cells, or both, using cell type-specific markers.
# [6] = tested on: Hes1 transcript in IMO-2B1 murine inner ear cell line; experiment: Hes1 knockdown efficiency by RT-qPCR, transfected siHES1 molecules; format: cell-based; settings: IMO-2B1, RNAiMAX, 48 hours after transfection
# Excerpt: FIG. 27 depicts reverse transcription-quantitative polymerase chain reaction (RT-qPCR) results from comparative dose curve analyses of Hes1 knockdown efficiency relative to mock-treated controls in a murine inner ear cell line (IMO-2B1), using two distinct siHES1 molecules with conserved target sites among mammalian Hes1 transcripts. SiRNA molecules were transfected into sub-confluent wells of IMO-2B1, using a commercial transfection agent (RNAiMAX, ThermoFisher Sci.). Forty-eight hours after transfection, total RNA was isolated and subjected to RT-qPCR analyses, using primers against Hes1 and the house keeping gene GAPDH. Relative Hes1 levels were determined by the 2^−ΔΔCT method (See Livak and Schmittgen (2001) Methods 25(4):402-408, incorporated by reference in its entirety). The apparent potency of molecule #7 for depleting Hes1 transcript levels was considerably greater than that of molecule #1, as optimal knockdown using molecule #7 was observed using as little as 2 nM siRNA (relative to ˜20 nM required for molecule #1).
molecule,measurement,setting,value
"O=C1Nc2cc(Br)ccc2/C1=C1/Nc2ccccc2/C1=N\O [BIO, 6-bromoindirubin-3′-oxime]",HC numbers (Myo7a-positive cells) in striolar/extrastriolar region,[1],increased HC numbers within the striolar region
same,proliferative response (EdU-positive nuclei),"[2]; serum-starved MDCK, 48 h, across dose range tested (up to 10 μM)",reduced numbers of EdU-positive nuclie
Cc1c[nH]c(-c2cnc(NCCNc3ccc(C#N)cn3)nc2-c2ccc(Cl)cc2Cl)n1 [CHIR-99021],number of EdU-positive nuclei,"[2]; 10 μM, relative to untreated serum-starved cells","statistically insignificant relative to untreated, serum-starved cells"
same,mitotically-active cells (EdU-positive nuclei),"[2]; low-dose (0.1 μM), serum starvation","robust, statistically-significant increase in mitotically-active cells"
"C[C@H](NC(=O)Cc1cc(F)cc(F)c1)C(=O)N[C@@H]1C(=O)N(C)c2ccccc2-c2ccccc21 [GSI, deshydroxy LY 411575]",HC numbers (Myo7a-positive cells) in striolar/extrastriolar region,[1],increased HC numbers within the striolar region
"[Cl-].[Li+] [LiC1, lithium chloride]",EdU-positive cells,"[2]; 10 mM, relative to identical dose of sodium chloride",increased numbers of EdU-positive cells
"NC[C@@H]1O[C@H](O[C@H]2[C@@H](O)[C@H](O[C@@H]3[C@@H](O)[C@H](N)C[C@H](N)[C@H]3O[C@H]3O[C@H](CN)[C@@H](O)[C@H](O)[C@H]3N)O[C@@H]2CO)[C@H](N)[C@@H](O)[C@@H]1O [NEO alone, neomycin]","Hair Cell Counts ± SEM, Mid-apical turn",[3],5.1 ± 1.1
same,"Hair Cell Counts ± SEM, Middle Turn",[3],2.5 ± 0.8
"O=c1sn(-c2cccc3ccccc23)c(=O)n1Cc1ccccc1 [TIDE, tideglusib]","siHes1 NP regenerative efficacy, middle turn","[4]; 10 μM Tideglusib with 60 nM siHes1 NPs, relative to siHes1 NPs alone",statistically-significant increases
same,"siHes1 NP regenerative efficacy, basal turn","[4]; 2 and 10 μM Tideglusib with 60 nM siHes1 NPs, relative to siHes1 NPs alone",statistically-significant increases
same,HC numbers / densities with combined treatment,"[4]; NEO-ablated OCs, 60 nM siHes1 NP plus Tideglusib 0.5, 2 or 10 μM, 6 d",concentration-dependent enhancement of siHes1 NP-induced hair cell (HC) regeneration
same,regenerative response (HC numbers),"[4]; Tideglusib alone (2 μM), NEO-ablated OCs",did not induce a statistically significant regenerative response
same,"siHes1 NP regenerative efficacy, mid-apical region",[4]; Tideglusib with 60 nM siHes1 NPs vs siHes1 NPs alone,no statistically-significant differences between the treatment groups
same,"Hair Cell Counts ± SEM, Mid-apical turn",[3],9.1 ± 1.6
same,"Hair Cell Counts ± SEM, Middle Turn",[3],2.8 ± 0.8
same,mitotic response (EdU-positive nuclei) in sensory epithelial region,[5],greater incidence of EdU-positive nuclei; also recorded: markedly greater mitotic response in the sensory epithelial region
FGF-2: basic fibroblast growth factor used as media supplement,effect of FGF-2 media supplement on HC regeneration,"[3]; 2 ng/mL FGF-2, NEO-ablated OCs, with or without TIDE then siHes1",did not elicit a therapeutic response on its own; also recorded: potentiated the therapeutic effects of TIDE/siHES1 treatment through the mid-basal turn of the OC
"Molecule 1: siRNA, murine Hes1 mRNA nt 239-257, SEQ ID NO: 1 and 2 (chain 1 CAGCUGAUAUAAUGGAGAATT; chain 2 UUCUCCAUUAUAUCAGCUGTT; chemistry not given here)",siRNA concentration for optimal Hes1 knockdown,[6],~20 nM
"Molecule 7: siRNA, human Hes1 mRNA nt 673-691, SEQ ID NO: 13 and 14 (chain 1 ACUGCAUGACCCAGAUCAA; chain 2 UUGAUCUGGGUCAUGCAGU; listed as RNA, chemistry not given here)",siRNA concentration for optimal Hes1 knockdown,[6],2 nM

# Reference: patent US11013752B2, “Combination therapies for inner ear sensory hair cell regeneration/replacement” (Hough Ear Institute, priority 2016, dated 2021)
